Test results published in patent publication US10123978B2, “Patch for treating dermatophytosis” (MEIJI SEIKA PHARMA CO., LTD., priority 2012, dated 2018).
Structures can show the parent of a compound that is named as a salt.

Assays:
[1] = test system: Trichophyton mentagrophytes (T. mentagrophytes) ATCC18748; experiment: Antifungal activity test against dermatophytes (MIC); type: cell-based; details: 80% growth inhibiting concentration, RPMI1640/MOPS, 28° C., 3 days, WST8; for MIC: Trichophyton mentagrophytes, 72 h
Method: (§1) Measurement of the anti-trichophyton activity of the compound of the formula (I) comprised in the patch of the present invention was carried out by the following method. The compound to be evaluated was used by dissolving in dimethyl sulfoxide (DMSO). As a medium for the test, RPMI1640 medium containing 0.165M of 3-morpholinopropanesulfonic acid (MOPS) was used. As fungi to be tested, Trichophyton mentagrophytes (T. mentagrophytes) ATCC18748 or Trichophyton rubrum (T. rubrum) ATCC10218 was used. The testing fungal strain was apportioned to 100 μl with a concentration of 1×10^4 conidia/ml, mixed with a compound to be evaluated on a 96-well half area plate so that the DMSO concentration became 1%, and cultured at a cultivation temperature of 28° C. for 3 days (Trichophyton mentagrophytes) or 4 days (Trichophyton rubrum). Thereafter, 5 μl of Cell Counting Kit 8 (WST8) was added thereto, and absorbances at 450 nm and 595 nm were measured to use these as background values. Thereafter, these were cultivated at 28° C. for 5 hours (Trichophyton mentagrophytes) or overnight (Trichophyton rubrum) to cause a color, and absorbances at 450 nm and 595 nm were measured again. A growth inhibiting rate was calculated from the difference to the background values, and a 80% growth inhibiting concentration was made an MIC value (μg/ml).

[2] = test system: Trichophyton rubrum (T. rubrum) ATCC10218; experiment: as above; type: cell-based; details: 80% growth inhibiting concentration, RPMI1640/MOPS, 28° C., 4 days, WST8; for MIC: Trichophyton rubrum, 96 h
Method: as §1

Compound	MIC (T. mentagrophytes) [1]	MIC (T. rubrum) [2]	MIC [1] [µg/mL]	MIC [2] [µg/mL]
Cc1cc(C)n(-c2c(O)cccc2O)n1 [compound 43]	E (Inhibited less than 50% with 32 μg/ml)	D (>32-64 μg/ml)		
Cc1nn(-c2cc(O)ccc2O)c(C)c1Cl [compound 19]	C (16 to 32 μg/ml)	C (16-32 μg/ml)		
Cc1ccn(-c2ccccc2O)n1 [compound 7]	C (16 to 32 μg/ml)	E (>64 μg/ml)		
Cc1cc(C)n(-c2cc(Cl)ccc2O)n1 [compound 11]	C (16 to 32 μg/ml)	D (>32-64 μg/ml)		
Cc1cc(C)n(-c2cccc(C)c2O)n1 [compound 51]	E (Inhibited less than 50% with 32 μg/ml)	D (>32-64 μg/ml)		
Cc1ccc(O)c(-n2nc(C)cc2C)c1 [compound 49]	E (Inhibited less than 50% with 32 μg/ml)	D (>32-64 μg/ml)		
Cc1cc(C)n(-c2cccc(Cl)c2O)n1 [compound 12]	C (16 to 32 μg/ml)	E (>64 μg/ml)		
CCC(C)(C)c1ccc(CC(C)CN2C[C@@H](C)O[C@@H](C)C2)cc1 (some centres unmarked) [Amorolfine hydrochloride, reference compound]			≤ 1	≤ 2
Cc1cc(C)n(-c2ccc(C(=O)O)cc2O)n1 [compound 37]	B (2 to 8 μg/ml)	B (4-16 μg/ml)		
Cc1ccnn1-c1ccccc1O [compound 8]	C (16 to 32 μg/ml)	E (>64 μg/ml)		
CCOC(=O)c1c(C)nn(-c2ccccc2O)c1C [compound 22]	C (16 to 32 μg/ml)	D (>32-64 μg/ml)		
CCCCc1c(C)nn(-c2ccccc2O)c1C [compound 24]	A (≤1 μg/ml)	C (16-32 μg/ml)		
CCc1cc(CC)n(-c2ccccc2O)n1 [compound 14]	B (2 to 8 μg/ml)	B (4-16 μg/ml)		
CN(C/C=C/C#CC(C)(C)C)Cc1cccc2ccccc12 [Terbinafine hydrochloride, reference compound]			≤ 1	≤ 2
Cc1cc(C)n(-c2cc(O)ccc2O)n1 [compound 16]	C (16 to 32 μg/ml)	E (>64 μg/ml)		
CCc1c(C)nn(-c2ccccc2O)c1C [compound 17]	A (≤1 μg/ml)	A (≤2 μg/ml)		
Cc1nn(-c2ccccc2O)c(C)c1Cl [compound 13]	A (≤1 μg/ml)	B (4-16 μg/ml)		
Cc1cc(C)n(-c2ccc(C(=O)N(C)C)cc2O)n1 [compound 38]	C (16 to 32 μg/ml)	B (4-16 μg/ml)		
Cc1cc(C)n(-c2ccc(N)cc2O)n1 [compound 31]	B (2 to 8 μg/ml)	B (4-16 μg/ml)		
Cc1cc(C(F)(F)F)nn1-c1ccccc1O [compound 5]	C (16 to 32 μg/ml)	D (>32-64 μg/ml)		
Cc1cc(C)n(-c2ccc([N+](=O)[O-])cc2O)n1 [compound 28]	B (2 to 8 μg/ml)	C (16-32 μg/ml)		

Compound	MIC (T. mentagrophytes) [1]	MIC (T. rubrum) [2]	MIC [1] [µg/mL]	MIC [2] [µg/mL]
Cc1cc(C)n(-c2cccc(O)c2O)n1 [compound 15]	C (16 to 32 μg/ml)	C (16-32 μg/ml)		
Cc1cc(C)n(-c2c(C)cccc2O)n1 [compound 46]	E (Inhibited less than 50% with 32 μg/ml)	D (>32-64 μg/ml)		
Cc1nn(-c2cc(F)ccc2O)c(C)c1C [compound 20]	C (16 to 32 μg/ml)	D (>32-64 μg/ml)		
COC(=O)c1ccc(-n2nc(C)cc2C)c(O)c1 [compound 35]	C (16 to 32 μg/ml)	C (16-32 μg/ml)		
Cc1cc(C)n(-c2ccc(C(N)=O)cc2O)n1 [compound 39]	C (16 to 32 μg/ml)	C (16-32 μg/ml)		
Oc1ccccc1-n1nc(C(F)(F)F)cc1C(F)(F)F [compound 6]	C (16 to 32 μg/ml)	E (>64 μg/ml)		
Cc1nn(-c2ccc(F)cc2O)c(C)c1Cl [compound 21]	A (≤1 μg/ml)	B (4-16 μg/ml)		
Cc1nn(-c2ccc(C(=O)O)cc2O)c(C)c1C [compound 40]	E (Inhibited less than 50% with 32 μg/ml)	D (>32-64 μg/ml)		
Cc1nn(-c2ccccc2O)c(C)c1C [compound 9]	A (≤1 μg/ml)	A (≤2 μg/ml)		
Cc1cc(C)n(-c2c(N)cccc2O)n1 [compound 36]	E (Inhibited less than 50% with 32 μg/ml)	D (>32-64 μg/ml)		
Cc1cc(C)n(-c2ccc(O)cc2O)n1 [compound 33]	B (2 to 8 μg/ml)	A (≤2 μg/ml)		
Cc1nn(-c2ccc(N)cc2O)c(C)c1C [compound 34]	B (2 to 8 μg/ml)	B (4-16 μg/ml)		
Cc1nn(-c2ccc(C(N)=O)cc2O)c(C)c1C [compound 41]	D (Inhibited 50% or more and less than 80% with 32 μg/ml)	D (>32-64 μg/ml)		
Cc1cc(C)n(-c2ccc(Cl)cc2O)n1 [compound 26]	A (≤1 μg/ml)	A (≤2 μg/ml)		
Cc1nn(-c2ccc([N+](=O)[O-])cc2O)c(C)c1C [compound 32]	B (2 to 8 μg/ml)	B (4-16 μg/ml)		
Cc1cc(C)n(-c2ccccc2O)n1 [compound 1]	B (2 to 8 μg/ml)	B (4-16 μg/ml)		
Cc1cc(C)n(-c2ccc(F)cc2O)n1 [compound 25]	B (2 to 8 μg/ml)	B (4-16 μg/ml)		
Cc1nn(-c2ccc(F)cc2O)c(C)c1C [compound 18]	B (2 to 8 μg/ml)	B (4-16 μg/ml)		
Cc1nn(-c2ccc(Cl)cc2O)c(C)c1C [compound 30]	A (≤1 μg/ml)	A (≤2 μg/ml)		
CC(C)(C)c1cc(N)n(-c2ccccc2O)n1 [compound 10]	D (Inhibited 50% or more and less than 80% with 32 μg/ml)	E (>64 μg/ml)		
COC(=O)CCc1c(C)nn(-c2ccccc2O)c1C [compound 23]	C (16 to 32 μg/ml)	D (>32-64 μg/ml)		

Continued, values first:

MIC (T. mentagrophytes) [1]	MIC (T. rubrum) [2]	MIC [1] [µg/mL]	MIC [2] [µg/mL]	Compound
B (2 to 8 μg/ml)	B (4-16 μg/ml)			Cc1cc(C)n(-c2ccc(C(F)(F)F)cc2O)n1 [compound 50]
B (2 to 8 μg/ml)	B (4-16 μg/ml)			CC(=O)Oc1ccc(-n2nc(C)cc2C)c(O)c1 [compound 57]
A (≤1 μg/ml)	A (≤2 μg/ml)			CCc1ccc(-n2nc(C)cc2C)c(O)c1 [compound 52]
C (16 to 32 μg/ml)	D (>32-64 μg/ml)			Cc1nn(-c2ccc(C(N)=O)cc2O)c(C)c1Cl [compound 42]
B (2 to 8 μg/ml)	A (≤2 μg/ml)			CC(=O)Oc1ccc(-n2nc(C)c(Cl)c2C)c(O)c1 [compound 58]
A (≤1 μg/ml)	A (≤2 μg/ml)			COc1ccc(-n2nc(C)cc2C)c(O)c1 [compound 45]
A (≤1 μg/ml)	A (≤2 μg/ml)			Cc1nn(-c2ccc(O)cc2O)c(C)c1Cl [compound 63]
B (2 to 8 μg/ml)	B (4-16 μg/ml)			CNc1ccc(-n2nc(C)cc2C)c(O)c1 [compound 48]
B (2 to 8 μg/ml)	B (4-16 μg/ml)			Cc1nn(-c2ccccc2O)c(C)c1F [compound 53]
A (≤1 μg/ml)	A (≤2 μg/ml)			Cc1cc(C)n(-c2ccc(Br)cc2O)n1 [compound 54]
B (2 to 8 μg/ml)	B (4-16 μg/ml)			CC(=O)Oc1ccc(-n2nc(C)c(C)c2C)c(O)c1 [compound 59]
A (≤1 μg/ml)	A (≤2 μg/ml)			Cc1ccc(-n2nc(C)cc2C)c(O)c1 [compound 44]
C (16 to 32 μg/ml)	C (16-32 μg/ml)			Cc1cc(C)n(-c2cc(Cl)c(C)cc2O)n1 [compound 61]
A (≤1 μg/ml)	A (≤2 μg/ml)			Cc1nn(-c2ccc(Br)cc2O)c(C)c1C [compound 56]
A (≤1 μg/ml)	A (≤2 μg/ml)			Cc1nn(-c2ccc(Br)cc2O)c(C)c1Cl [compound 55]
B (2 to 8 μg/ml)	B (4-16 μg/ml)			Cc1cc(C)n(-c2ccc(CO)cc2O)n1 [compound 47]
